Measurements from patent US10723741B1, “DNA polymerase IIIC inhibitors and use thereof” (Acurx Pharmaceuticals, LLC, priority 2018, dated 2020).
Converted amounts (≈) assume the structure as drawn. Counter-ions that a name gives are not always drawn. Like-named read-outs stand apart in the source and are kept apart here.

Experiments:
Type in all cases: cell-based
[1] = test system: Staphylococcus aureus NRS384 (MRSA); assay: Broth microdilution MIC, S. aureus NRS384 (MRSA); settings: Staphylococcus aureus, read-out: MIC NRS 384 (MRSA)
In short: (§1)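 Broth microdilution in strain-specific test medium with ~5.0×10^5 cfu/ml inoculum, 1% DMSO and two-fold compound dilutions from 64 to 0.0625 μg/ml. Plates were held 20 hours at 37° C in ambient air. S. pneumoniae colonies were grown beforehand on blood agar in 5% CO2.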

[2] = test system: Staphylococcus aureus ATCC 29213 (MSSA); assay: Broth microdilution MIC, S. aureus ATCC 29213 (MSSA); settings: read-out: MIC S. aureus ATCC 29213 (MSSA)
In short: as §1

[3] = test system: Enterococcus faecalis ATCC 29212; assay: Broth microdilution MIC, E. faecalis ATCC 29212; settings: read-out: MIC E. faecalis ATCC 29212
In short: as §1

[4] = test system: Enterococcus faecium ATCC 700221 (VRE); assay: Broth microdilution MIC, E. faecium ATCC 700221 (VRE); settings: Enterococcus faecium, read-out: MIC E. faecium ATCC 700221 (VRE)
In short: as §1

[5] = test system: Streptococcus pneumoniae ATCC 49619; assay: Broth microdilution MIC, S. pneumoniae ATCC 49619; settings: read-out: MIC S. pneumoniae ATCC 49619
In short: as §1

[6] = test system: Bacillus subtilis ATCC 6633; assay: Broth microdilution MIC, B. subtilis ATCC 6633; settings: read-out: MIC B. subtilis ATCC 6633
In short: as §1

[7] = test system: Escherichia coli ATCC 25922; assay: Broth microdilution MIC, E. coli ATCC 25922 (MHIIB w & w/o 4 mM EDTA); settings: for MIC: Escherichia coli, read-out: MIC E. coli ATCC 25922; for MIC E. coli ATCC 25922 + 4 mM EDTA: with 4 mM EDTA
In short: as §1

[8] = broth microdilution, 37° C., 20 hours
[9] = ATCC29212, broth microdilution, 37° C., 20 hours
[10] = ATCC49619, broth microdilution, 37° C., 20 hours
[11] = ATCC6633, broth microdilution, 37° C., 20 hours
[12] = ATCC25922, without EDTA, broth microdilution, 37° C., 20 hours

Row | MIC [1, 8] | MIC [2, 8] | MIC [3, 9] | MIC [4, 8] | MIC [5, 10] | MIC [6, 11] | MIC [7, 12] | MIC E. coli ATCC 25922 + 4 mM EDTA [7, 8] | SMILES | MIC ([1]; 20 h) | MIC ([2]; 20 h) | MIC ([3]; ATCC29212, 20 h) | MIC ([4]; 20 h) | MIC ([5]; ATCC49619, 20 h) | MIC ([6]; ATCC6633, 20 h) | MIC ([7]; ATCC25922, 20 h)
1 | 64 µg/mL | 32 µg/mL | 32 µg/mL | 64 µg/mL | 8 µg/mL | 4 µg/mL | > 64 µg/mL | >64 µg/mL | CN1CCC(O)(Cn2ncc3nc(NCc4ccc(Cl)c(Cl)c4)[nH]c(=O)c32)CC1.Cl [Compound 241, 5-((3,4-dichlorobenzyl)amino)-1-((4-hydroxy-1-methylpiperidin-4-yl)methyl)-1H-pyrazolo[4,3-d]pyrimidin-7(6H)-one hydrochloride] |  |  |  |  |  |  | 
2 | 2 µg/mL | 2 µg/mL | 4 µg/mL | 2 µg/mL | 4 µg/mL | 1 µg/mL | > 64 µg/mL | 16 µg/mL | Cl.Cl.O=c1[nH]c(NCc2ccc(Cl)c(Cl)c2)nc2cnn(C3CCN(Cc4ccccn4)CC3)c12 [Compound 244, 5-((3,4-Dichlorobenzyl)amino)-1-(1-(pyridin-2-ylmethyl)piperidin-4-yl)-1H-pyrazolo[4,3-d]pyrimidin-7(6H)-one dihydrochloride] |  |  |  |  |  |  | 
3 | 2 µg/mL | 2 µg/mL | 4 µg/mL | 1 µg/mL | 2 µg/mL | 1 µg/mL | > 64 µg/mL | 32 µg/mL | Cl.Cl.O=c1[nH]c(NCc2ccc(Cl)c(Cl)c2)nc2cnn(C3CCN(Cc4cccnc4)CC3)c12 [Compound 245, 5-((3,4-Dichlorobenzyl)amino)-1-(1-(pyridin-3-ylmethyl)piperidin-4-yl)-1H-pyrazolo[4,3-d]pyrimidin-7(6H)-one dihydrochloride] |  |  |  |  |  |  | 
4 | 2 µg/mL | 2 µg/mL | 4 µg/mL | 2 µg/mL | 4 µg/mL | 1 µg/mL | > 64 µg/mL | >64 µg/mL | Cl.Cl.O=c1[nH]c(NCc2ccc(Cl)c(Cl)c2)nc2cnn(C3CCN(Cc4ccncc4)CC3)c12 [Compound 246, 5-((3,4-Dichlorobenzyl)amino)-1-(1-(pyridin-4-ylmethyl)piperidin-4-yl)-1H-pyrazolo[4,3-d]pyrimidin-7(6H)-one dihydrochloride] |  |  |  |  |  |  | 
5 | 64 µg/mL | 32 µg/mL | 32 µg/mL | 32 µg/mL | 8 µg/mL | 8 µg/mL | > 64 µg/mL | 64 µg/mL | Cl.Cl.O=c1[nH]c(NCc2ccc(Cl)c(Cl)c2)nc2cnn(C3CCN(CC4CCNCC4)CC3)c12 [Compound 247, 5-((3,4-dichlorobenzyl)amino)-1-(1-(piperidin-4-ylmethyl)piperidin-4-yl)-1H-pyrazolo[4,3-d]pyrimidin-7(6H)-one dihydrochloride] |  |  |  |  |  |  | 
6 | 16 µg/mL (≈ 27.1 µM) | 16 µg/mL (≈ 27.1 µM) | 4 µg/mL (≈ 6.77 µM) | 4 µg/mL (≈ 6.77 µM) | 8 µg/mL (≈ 13.5 µM) | 4 µg/mL (≈ 6.77 µM) | > 64 µg/mL | 8 µg/mL | CC(C)(C)OC(=O)N1CCC(CN2CCC(n3ncc4nc(NCc5ccc(Cl)c(Cl)c5)[nH]c(=O)c43)CC2)CC1 [Compound 248, tert-Butyl 4-((4-(5-((3,4-dichlorobenzyl)amino)-7-oxo-6,7-dihydro-1H-pyrazolo[4,3-d]pyrimidin-1-yl)piperidin-1-yl)methyl)piperidine-1-carboxylate2,2,2-trifluoroacetate] |  |  |  |  |  |  | 

Row | SMILES | MIC [1, 8] | MIC [2, 8] | MIC [3, 9] | MIC [4, 8] | MIC [5, 10] | MIC [6, 11] | MIC [7, 12] | MIC E. coli ATCC 25922 + 4 mM EDTA [7, 8] | MIC ([1]; 20 h) | MIC ([2]; 20 h) | MIC ([3]; ATCC29212, 20 h) | MIC ([4]; 20 h) | MIC ([5]; ATCC49619, 20 h) | MIC ([6]; ATCC6633, 20 h) | MIC ([7]; ATCC25922, 20 h)
7 | CN1CCC(n2ncc3nc(NCc4ccc(Cl)c(Cl)c4)[nH]c(=O)c32)C1 (centres unmarked) [Compound 243, 5-((3,4-Dichlorobenzyl)amino)-1-(1-methylpyrrolidin-3-yl)-1H-pyrazolo[4,3-d]pyrimidin-7(6H)-one TFA salt] |  |  |  |  |  |  |  | 32 µg/mL | 8 µg/mL | 8 µg/mL | 8 µg/mL | 4 µg/mL | 4 µg/mL | 4 µg/mL | > 64 µg/mL
